Measurements published in patent publication US20090178145A1, “Methods and targets for identifying compounds for regulating angiogenesis” (The Procter & Gamble Company, priority 2005, published 2009).

What was measured:
ETL = assay: Zebrafish morpholino knockdown of ETL: blood circulation and intersegmental vessel morphology; type: in vivo
From the text: (§1) To assess gene function in zebrafish (Danio rario) angiogenesis, MOs directed against ETL, GPR (or GPR176) and their respective mismatch controls are microinjected into zebrafish at the 1-2 cell stage. Blood circulation through the intersegmental vessels (ISVs) is observed in live zebrafish at 48 hpf and morphology of ISVs in the tail at 48 hpf using Phy-V antibody staining is also examined as described (Seng W. L. et al., Angiogenesis. 2004; 7(3):243-53.). The sequence for the ETL morpholino is: […]. The sequence for the mismatch […] morpholino (small case letters indicate mismatches) is: GCAcGAcTTTgATTGGAcAACTcTG. The sequence for the GPR morpholino is: […]. The sequence for the mismatch […] morpholino (small case letters indicate mismatches) is: AGgTCTgCGCcTTATCCcCCTCgAT.
While transcriptional gene changes provide the basis for investigating ETL and GPR as regulators of vascular development, experiments are carried out to obtain functional evidence that ETL and GPR are involved in blood vessel growth and development. To accomplish this, a zebrafish model may be used with ETL or GPR morpholino oligos to reduce gene expression during vasculogenesis. […] This effect is not seen in control MO injections.

GPR176 = assay: Zebrafish morpholino knockdown of GPR (GPR176): blood circulation and intersegmental vessel morphology; type: in vivo; conditions: 48 hpf
From the text: as §1
This effect is not seen in control MO injections.

| Substance | zebrafish affected (same ISV phenotype as the 0.5 pmol dose) (ETL; 0.25 pmol ETL MO, 48 hpf) [%] | zebrafish with abnormal connections and incomplete vessel formation of ISVs by immunostaining (ETL; 0.5 pmol ETL MO injected at 1-2 cell stage, 48 hpf) [%] | body morphology in live zebrafish (ETL; 0.5 pmol ETL MO, 48 hpf) | blood circulation through the intersegmental vessels in live zebrafish (ETL; 0.5 pmol ETL MO, 48 hpf, versus mismatch control) | phenotype of knockdown in images (FIG. 7) (ETL; 48 hours post fertilization, versus mismatch control) | zebrafish affected (similar ISV phenotype as the 0.5 pmol dose) (GPR176; 0.25 pmol GPR MO) [%] | body morphology in live zebrafish (GPR176; 0.5 pmol GPR MO) | zebrafish with abnormal connections and incomplete vessel formation of ISVs by immunostaining (GPR176; 0.5 pmol GPR MO, experiment 1) [%] | zebrafish with abnormal connections and incomplete vessel formation of ISVs by immunostaining (GPR176; 0.5 pmol GPR MO, experiment 2) [%] | blood circulation through the intersegmental vessels in live zebrafish (GPR176; 0.5 pmol GPR MO, versus mismatch control) |
| --- | --- | --- | --- | --- | --- | --- | --- | --- | --- | --- |
| ETL MO: morpholino oligo directed against zebrafish ETL, sequence GCAGGAGTTTCATTGGAGAACTGTG (SEQ ID NO 17) (all phosphorodiamidate morpholino (PMO)) | 70 | 100 | slightly curved body morphology | visible circulatory defects | retarded eye formation, edema in the brain and disrupted intersegmental vessel development and disrupted blood circulation |  |  |  |  |  |
| GPR MO: morpholino oligo directed against zebrafish GPR176, sequence AGCTCTCCGCGTTATCCGCCTCCAT (SEQ ID NO 19) (all phosphorodiamidate morpholino (PMO)) |  |  |  |  |  | 37 | slightly curved body morphology | 76 | 94 | visible circulatory defects |
